From US9636330B2, “Tetrahydrocarboline derivative” (ONO PHARMACEUTICAL CO., LTD., priority 2010, dated 2017) come the findings set out here.

Test [1] has as its target human ENPP2 (Homo sapiens (Human), UniProt Q13822). The test can be described thus: Measurement of Human ENPP2 Inhibitory Activity. Format: biochemical. The settings on record: 1 μM test compound; 16:0-LPC substrate, choline production; read-out: ENPP2 inhibition rate(%) (1 μM). The method, then: 10 μL of a test compound solution (10% dimethyl sulfoxide) at each concentration and 40 μL of a 5 μg/mL human ENPP2 solution (buffer A: 100 mmol/L Tris-HCl (pH 9.0), 500 mmol/L NaCl, 5 mmol/L MgCl2, 0.05% Triton X-100) were mixed, 50 μL of a 2 mmol/L 16:0-lysophosphatidylcholine (LPC) solution (buffer A) was further added to react at 37° C. for 24 hours. Subsequently, to 10 μL of the reaction solution was added 90 μL of a measurement buffer (0.5 mmol/L aminoantipyrine, 0.3 mmol/L N-ethyl-N-(2-hydroxy-3-sulfopropyl)-3-methylaniline, 1 U/mL peroxidase, 3 U/mL choline oxidase, 100 mmol/L Tris-HCl (pH 8.5), 5 mmol/L CaCl2) to react at 37° C. for 20 minutes, and spectrophotometric determination was performed at 555 nm.
Using a standard curve, a choline production amount (enzyme activity) in each test compound was calculated, and the inhibitory activity rate of each test compound was calculated, wherein the enzyme activity in a positive control to which a test compound is not added, was a 0% inhibition rate, and the enzyme activity in a negative control to which a test compound and human ENPP2 are not added, were 100% inhibition. Further, concerning the present compounds shown in Table 3, an IC50 value was calculated from inhibitory activity rate at each concentration.

For test [2], the system named is urethra internal pressure of a rat. As to the kind of experiment: Measurement of Urethra Internal Pressure in Rat Under Anesthesia. Particulars: SD male rat under urethane anesthesia, intravenous. Type of test: in vivo. The source says: A SD male rat (Crl: CD(SD), Charles River Laboratories Japan, Inc., 7-10 weeks old) was anesthetized by subcutaneous administration of 1.5 g/kg urethane at a back of a neck. After neck median incision, a jugular vein catheter for intravenous administration was inserted. A lower abdominal part was median incised, and a urethra was ligated at around pubis. A urethral catheter for measuring a urethra internal pressure, equipped with a collar at a tip and filled with a physiological saline was inserted into a urethra through an incised bladder top, and ligation-fixed at a bladder neck part. The urethral catheter was connected to a pressure transducer (manufactured by Nihon Kohden Corporation), and a urethra internal pressure was measured. […] A urethra internal pressure reduction rate (%) was calculated based on a urethra internal pressure after compound administration, wherein a value obtained by subtracting a postmortem baseline value (minimum value of urethra internal pressure for 10 minutes after administration of somnopentyl) from a urethra internal pressure value before compound administration (0 minute) was 100%.

In general, inhibition refers to the change of the read-out against control, counted positive when it falls. Take `O=C(CC12CCC(C(=O)O)(CC1)CC2)N1CCc2c(n(Cc3ccc(Cl)cc3F)c3ncccc23)C1` [Example 31(142), 4-{2-[9-(4-chloro-2-fluorobenzyl)-5,6,8,9-tetrahydro-7H-pyrido[4′,3′:4,5]pyrrolo[2,3-b]pyridin-7-yl]-2-oxoethyl}bicyclo[2.2.2]octane-1-carboxylic acid]: the inhibition at 1 µM in test [1] came to 98.6%.
On to `O=C(O)CCCCC(=O)N1CCc2c(n(CCCc3ccccc3)c3ccccc23)C1` [Example 3, 6-oxo-6-[9-(3-phenylpropyl)-1,3,4,9-tetrahydro-2H-beta-carbolin-2-yl]hexanoic acid], for which the urethra internal pressure result in test [2] (dose 0.1, 0.3, 1.0 mg/kg, FIG. 1) was “significantly reduced a urethra internal pressure”.
As for `O=C(C[C@H]1CC[C@H](C(=O)O)CC1)N1CCc2c(n(Cc3ccc(Cl)cc3F)c3ncccc23)C1` [Example 31(24), trans-4-{2-[9-(4-chloro-2-fluorobenzyl)-5,6,8,9-tetrahydro-7H-pyrido[4′,3′:4,5]pyrrolo[2,3-b]pyridin-7-yl]-2-oxoethyl}cyclohexanecarboxylic acid], the urethra internal pressure result in test [2] (dose 0.03, 0.1, 0.3 mg/kg, FIG. 2) was “significantly reduced a urethra internal pressure”.
